PMC8119466, “A screen of FDA-approved drugs identifies inhibitors of protein tyrosine phosphatase 4A3 (PTP4A3 or PRL-3)” (Scientific Reports, 2021)
Structures can show the parent of a compound that is named as a salt. Where two headings read alike, the source gives them in different places.

What was measured:
Format in all cases: biochemical
[1] = target: T1, recombinant PRL-2 (Homo sapiens, UniProt Q12974); assay: In vitro phosphatase assay (DiFMUP hydrolysis), PRL-2;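 further: PRL-2 activity read as DiFMUP hydrolysis after 20 min at room temperature with drug, enzyme first pre-reduced at 4 °C for 20 min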
T1 construct: 6xHis (N, cleaved yes); made in house; host or cells: E. coli One Shot BL21 Star
T1 sequence (Q12974 1-167): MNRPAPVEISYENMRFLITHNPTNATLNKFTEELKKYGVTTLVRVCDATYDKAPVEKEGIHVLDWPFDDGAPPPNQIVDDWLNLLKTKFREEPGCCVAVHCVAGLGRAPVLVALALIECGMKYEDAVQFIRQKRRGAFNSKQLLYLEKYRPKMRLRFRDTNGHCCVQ
Protocol: Briefly, protein was diluted in reaction buffer and allowed to incubate at 4 °C for 20 min to allow for full reduction of the active site. DiFMUP, drug, and protein were added, and plates were incubated for 20 min at room temperature. Fluorescence intensities were measured on a Cytation 5 plate reader (Biotek) at an EX:360 nm and EM:460 nm. […] Inhibition selectivity for PRLs over a panel of other phosphatases was determined using PhosphataseProfiler (Eurofins, Cat # PP260).

[2] = target: T2, recombinant PRL-1 (Homo sapiens, UniProt Q93096); assay: In vitro phosphatase assay (DiFMUP hydrolysis), PRL-1; further: test concentration or dose not given here
T2 construct: 6xHis (N, cleaved yes); made in house; host or cells: E. coli One Shot BL21 Star
T2 sequence (Q93096 1-173): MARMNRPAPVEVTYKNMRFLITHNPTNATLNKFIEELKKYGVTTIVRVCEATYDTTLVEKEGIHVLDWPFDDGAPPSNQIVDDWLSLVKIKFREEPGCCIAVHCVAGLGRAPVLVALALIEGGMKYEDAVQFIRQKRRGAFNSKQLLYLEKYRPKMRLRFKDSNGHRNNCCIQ

[3] = target: T3, recombinant PRL-3 (Homo sapiens, UniProt O75365); assay: In vitro phosphatase assay (DiFMUP hydrolysis), PRL-3; further: test concentration or dose not given here
T3 construct: 6xHis (N, cleaved yes); made in house; host or cells: E. coli One Shot BL21 Star

[4] = FDA-approved drug screen, compared to DMSO

T3 sequence (O75365 whole entry): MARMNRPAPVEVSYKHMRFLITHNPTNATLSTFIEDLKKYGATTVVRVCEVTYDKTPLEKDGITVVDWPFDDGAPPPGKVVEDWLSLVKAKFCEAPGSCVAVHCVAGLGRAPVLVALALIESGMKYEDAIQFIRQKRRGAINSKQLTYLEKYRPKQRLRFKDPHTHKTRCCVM

| SMILES | % Phosphatase Activity (compared to DMSO) PRL-2 [1, 4] | % Phosphatase Activity (compared to DMSO) PRL-1 [2, 4] | % Phosphatase Activity (compared to DMSO) PRL-3 [3, 4] | % Phosphatase Activity (compared to DMSO) PRL-2 [1] | % Phosphatase Activity (compared to DMSO) PRL-1 [2] | % Phosphatase Activity (compared to DMSO) PRL-3 [3] |
| --- | --- | --- | --- | --- | --- | --- |
| CO/N=C(\C(=O)N[C@@H]1C(=O)N2C(C(=O)O)=C(CSc3nnnn3C)CS[C@H]12)c1csc(N)n1.CO/N=C(\C(=O)N[C@@H]1C(=O)N2C(C(=O)O)=C(CSc3nnnn3C)CS[C@H]12)c1csc(N)n1.Cl [Cefmenoxime hydrochloride] | 98% | 92% | 84% | – | – | – |
| CCN1CCN(C(=O)N[C@@H](C(=O)N[C@@H]2C(=O)N3C(C(=O)O)=C(CSc4nnnn4C)CS[C@H]23)c2ccc(O)cc2)C(=O)C1=O [Cefoperazone] | 94% | 100% | 89% | – | – | – |
| CO/N=C(\C(=O)N[C@@H]1C(=O)N2C(C(=O)O)=C(COC(C)=O)CS[C@H]12)c1csc(N)n1 [Cefotaxime sodium] | 118% | 112% | 91% | – | – | – |
| CC1=C(C(=O)O)N2C(=O)[C@@H](NC(=O)[C@H](N)C3=CCC=CC3)[C@H]2SC1 [Cefradine] | 76% | 95% | 102% | – | – | – |
| CC(C)(O/N=C(\C(=O)N[C@@H]1C(=O)N2C(C(=O)[O-])=C(C[n+]3ccccc3)CS[C@H]12)c1csc(N)n1)C(=O)O [Ceftazidime Pentahydrate] | 106% | 100% | 103% | – | – | – |
| CO/N=C(\C(=O)N[C@@H]1C(=O)N2C(C(=O)O)=C(CSC(=O)c3ccco3)CS[C@H]12)c1csc(N)n1.Cl [Ceftiofur HCl] | 104% | 107% | 84% | – | – | – |
| CO/N=C(/C(=O)N[C@@H]1C(=O)N2C(C(=O)[O-])=C(CSc3nc(=O)c([O-])nn3C)CS[C@H]12)c1csc(N)n1.O.O.O.[Na+].[Na+] [Ceftriaxone Sodium Trihydrate] | 115% | 102% | 108% | – | – | – |
| CO/N=C(\C(=O)N[C@@H]1C(=O)N2C(C(=O)O)=C(COC(N)=O)CS[C@H]12)c1ccco1 [Cefuroxime sodium] | 96% | 96% | 82% | – | – | – |
| Cc1ccc(-c2cc(C(F)(F)F)nn2-c2ccc(S(N)(=O)=O)cc2)cc1 [Celecoxib] | 81% | 92% | 71% | – | – | – |
| CC1=C(C(=O)O)N2C(=O)[C@@H](NC(=O)[C@H](N)c3ccccc3)[C@H]2SC1 [Cephalexin] | 81% | 98% | 98% | – | – | – |
| CC(=O)OCC1=C(C(=O)O)N2C(=O)[C@@H](NC(=O)Cc3cccs3)[C@H]2SC1 [Cephalothin] | 91% | 97% | 82% | – | – | – |
| CCS(=O)(=O)N1CCN(c2ccc(Nc3ncc(C(N)=O)c(NC4CC4)n3)cc2)CC1 [Cerdulatinib (PRT062070, PRT2070)] | 82% | 95% | 95% | – | – | – |
| Cl.Cl.O=C(O)COCCN1CCN(C(c2ccccc2)c2ccc(Cl)cc2)CC1 (stereo not drawn) [Cetirizine DiHCl] | – | – | – | 89% | 92% | 84% |
| CCCCCCCCCCCCCCCC[N+](C)(C)C.[Br-] [Cetrimonium Bromide (CTAB)] | 103% | 97% | 92% | – | – | – |
| C[C@H](CCC(=O)O)[C@H]1CC[C@H]2[C@@H]3[C@H](O)C[C@@H]4C[C@H](O)CC[C@]4(C)[C@H]3CC[C@]12C [Chenodeoxycholic Acid] | 102% | 87% | 115% | – | – | – |
| O=C(N[C@H](CO)[C@H](O)c1ccc([N+](=O)[O-])cc1)C(Cl)Cl [Chloramphenicol] | 80% | 96% | 83% | – | – | – |
| [H]/N=C(\N/C(=N/[H])NCCCCCCNC(=N)NC(=N)Nc1ccc(Cl)cc1)Nc1ccc(Cl)cc1 [Chlorhexidine HCl] | 112% | 97% | 118% | – | – | – |
| CC(=O)O[C@]1(C(C)=O)CC[C@H]2[C@@H]3C=C(Cl)C4=CC(=O)CC[C@]4(C)[C@H]3CC[C@@]21C [Chlormadinone acetate] | 76% | 85% | 81% | – | – | – |
| CN1C(=O)CCS(=O)(=O)C1c1ccc(Cl)cc1 (stereo not drawn) [Chlormezanone] | 127% | 81% | 91% | – | – | – |

| SMILES | % Phosphatase Activity (compared to DMSO) PRL-2 [1, 4] | % Phosphatase Activity (compared to DMSO) PRL-1 [2, 4] | % Phosphatase Activity (compared to DMSO) PRL-3 [3, 4] | % Phosphatase Activity (compared to DMSO) PRL-2 [1] | % Phosphatase Activity (compared to DMSO) PRL-1 [2] | % Phosphatase Activity (compared to DMSO) PRL-3 [3] |
| --- | --- | --- | --- | --- | --- | --- |
| O=C(O)CCCc1ccc(N(CCCl)CCCl)cc1 [Chloroambucil] | 103% | 98% | 77% | – | – | – |
| Cc1cc(O)ccc1Cl [Chlorocresol] | 101% | 89% | 77% | – | – | – |
| NS(=O)(=O)c1cc2c(cc1Cl)N=CNS2(=O)=O [Chlorothiazide] | 80% | 105% | 76% | – | – | – |
| COc1ccc(C(Cl)=C(c2ccc(OC)cc2)c2ccc(OC)cc2)cc1 [Chlorotrianisene] | 110% | 103% | 92% | – | – | – |
| Oc1c(Cl)cc(Cl)c2cccnc12 [Chloroxine] | 111% | 90% | 86% | – | – | – |
| Cc1cc(O)cc(C)c1Cl [Chloroxylenol] | 112% | 93% | 92% | – | – | – |
| CCCNC(=O)NS(=O)(=O)c1ccc(Cl)cc1 [Chlorpropamide] | 105% | 98% | 80% | – | – | – |
| CN(C)CC/C=C1/c2ccccc2Sc2ccc(Cl)cc21 [Chlorprothixene] | 107% | 98% | 93% | – | – | – |
| Cc1ccc2c(Cl)cc(Cl)c(O)c2n1 [Chlorquinaldol] | 102% | 88% | 71% | – | – | – |
| CN(C)[C@@H]1C(O)=C(C(N)=O)C(=O)[C@@]2(O)C(O)=C3C(=O)c4c(O)ccc(Cl)c4[C@@](C)(O)[C@H]3C[C@@H]12 [Chlortetracycline HCl] | 95% | 106% | 77% | – | – | – |
| C[N+](C)(C)CCO.[Cl-] [Choline Chloride] | – | – | – | 106% | 99% | 75% |
| O=C(O)c1cc(=O)c2ccccc2o1 [Chromocarb] | 102% | 95% | 85% | – | – | – |
| CC(C)C(=O)OCC(=O)[C@@]12O[C@H](C3CCCCC3)O[C@@H]1C[C@H]1[C@@H]3CCC4=CC(=O)C=C[C@]4(C)[C@H]3[C@@H](O)C[C@@]12C [Ciclesonide] | 108% | 100% | 88% | – | – | – |
| Cc1cc(C2CCCCC2)n(O)c(=O)c1.NCCO [Ciclopirox ethanolamine] | 109% | 106% | 83% | – | – | – |
| CCOC(=O)[C@H](CCc1ccccc1)N[C@H]1CCCN2CCC[C@@H](C(=O)O)N2C1=O [Cilazapril Monohydrate] | 111% | 91% | 73% | – | – | – |
| CC(C)[C@H]1C(=O)N[C@@H](CCCN=C(N)N)C(=O)NCC(=O)N[C@@H](CC(=O)O)C(=O)N[C@H](Cc2ccccc2)C(=O)N1C [Cilengitide] | 91% | 100% | 96% | – | – | – |
| COCCOC(=O)C1=C(C)NC(C)=C(C(=O)OC/C=C/c2ccccc2)C1c1cccc([N+](=O)[O-])c1 (stereo not drawn) [Cilnidipine] | 95% | 95% | 68% | – | – | – |
| O=C1CCc2cc(OCCCCc3nnnn3C3CCCCC3)ccc2N1 [Cilostazol] | 83% | 88% | 69% | – | – | – |
| O=C(O)c1cc(-c2ccccc2)nc2ccccc12 [Cinchophen] | 101% | 86% | 79% | – | – | – |
